# Values quoted from earlier work as cited in paper PMC12385147, “Discovery of Novel 2-Substituted Aniline Pyrimidine Based Derivatives as Potent Mer/c-Met Dual Inhibitors with Improvement Bioavailability” (Biomolecules, 2025).
# How the values were obtained:
# xenograft models = system: xenograft models; parameters: method as in PMID 29554921; conditions: cited from earlier work
# [1] = cited from earlier work
SMILES,tumor volume reduction vs. control (xenograft models),t1/2 in human hepatocytes [1] [min]
CCCCNc1ncc(-c2ccc(CN3CCOCC3)cn2)c(N[C@H]2CC[C@H](O)CC2)n1 [UNC2250],~ 60%,
CCCCNc1ncc2c(-c3ccc(CN4CCN(C)CC4)cc3)cn([C@H]3CC[C@H](O)CC3)c2n1 [UNC2025],,68
